Results published in PubChem BioAssay (NCI).
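96-well plates; 48 h exposure; 5 concentrations. Endpoints by linear interpolation between flanking doses. Not reached: highest tested concentration assigned. Abbreviation: GI50, concentration required for 50% inhibition of growth. At the TGI there is no net growth.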 Where a SMILES comes first, the peptide text is derived from it. [ ]: non-standard residue; d: D form. The star is where a group is joined. Phe(4-NO2) = N[CH](Cc1ccc([N+](=O)[O-])cc1)C(=O)O; Cbz = O=C(OCc1ccccc1)*

Assays:
Assay in all cases: NCI tumour cell line growth inhibition, 48 h
[1] = system: IGROV1 ovarian
[2] = system: SW-620 colon
[3] = system: OVCAR-5 ovarian
[4] = system: K-562 leukemia
[5] = system: SK-MEL-2 melanoma
[6] = system: UACC-62 melanoma
[7] = system: UACC-257 melanoma
[8] = system: HCC-2998 colon
[9] = system: COLO 205 colon
[10] = system: PC-3 prostate
[11] = system: M14 melanoma
[12] = system: CCRF-CEM leukemia
[13] = system: SK-MEL-28 melanoma
[14] = system: A498 renal

SMILES | TGI [1] [µM] | TGI [2] [µM] | TGI [3] [µM] | TGI [4] [µM] | TGI [5] [µM] | TGI [6] [µM] | TGI [7] [µM] | TGI [8] [µM] | TGI [9] [µM] | TGI [10] [µM] | TGI [11] [µM] | TGI [12] [µM] | TGI [13] [µM] | TGI [14] [µM] | GI50 [11] [µM]
CC1=NN(c2nc(N)nc(CCl)n2)C(C)(C)C1 | 20.5 | > 60.2 | > 78 | > 69.5 | > 100 | 32.5 | > 100 | 66.1 | > 58 | > 100 | > 75.4 | > 52.7 | > 75.8 | > 84.4 | –
COC(=O)c1ccc(C)cc1C1CN=NC12Cc1c(C)cccc1C2=O (stereo not given) | 98 | > 100 | > 100 | > 100 | 98.3 | > 68.7 | > 81.8 | > 100 | 42.8 | > 100 | > 100 | > 100 | > 100 | > 100 | 25.9
COc1cc(C)cc2c1C(=O)C(NC(C)=O)=CC2=O | > 100 | > 100 | > 100 | > 100 | > 100 | > 100 | > 100 | > 100 | > 100 | > 100 | > 100 | > 100 | > 100 | > 100 | –
COc1cccc(-c2nc(N)c(C#N)c3c2CCS(=O)(=O)c2ccc(C)cc2-3)c1 | > 100 | > 100 | > 100 | 11 | > 100 | > 100 | > 100 | > 100 | > 56.4 | > 100 | > 100 | 65.1 | > 100 | > 81.8 | –
c1ccc([P+](Cc2ccc(C[P+](c3ccccc3)(c3ccccc3)c3ccccc3)s2)(c2ccccc2)c2ccccc2)cc1 | > 100 | > 100 | > 100 | > 100 | > 100 | > 100 | > 100 | > 100 | > 100 | > 100 | > 100 | > 100 | > 100 | > 100 | –
c1ccc2c(c1)n1c(N3CCCC3)[n+]3ccccc3c1c1c3cccc[n+]3c(N3CCCC3)n21 | > 100 | > 100 | > 100 | > 100 | > 100 | > 100 | > 100 | > 100 | 74.9 | > 100 | > 100 | > 100 | > 100 | > 100 | –
CCOC(=O)C1=C(C)N(Cc2ccccc2)C2(O)C=CC(=O)C3C(=O)N(c4ccccc4)C(=O)C132 (stereo not given) | 4.32 | – | 9.85 | 27.3 | 3.98 | 4.01 | 7.59 | 3.2 | 3.1 | 6.88 | 3.92 | 5.51 | 3.54 | 28.1 | –
COC(=O)C1=CCC[C@H]2[C@@]1(COC(C)=O)CC[C@@H](C)[C@]2(C)CC(=O)c1ccoc1 | > 50 | > 50 | > 50 | – | > 50 | 20.1 | > 50 | 37.5 | 27.3 | > 50 | > 50 | 25.3 | – | > 50 | –
c1ccc(CSCCC(SCc2ccccc2)SCc2ccccc2)cc1 | > 10 | > 10 | – | > 10 | > 10 | > 10 | > 10 | > 10 | > 10 | > 10 | > 10 | > 10 | > 10 | > 10 | –
COc1ccc(/C=C2\CC3C4CC=C5C[C@@H](N6CCCC6)CC[C@]5(C)C4CC[C@]3(C)[C@H]2O)cc1OC (stereo not given in full) | 21.4 | 50 | 19 | 37.5 | 14.3 | 16 | 15.4 | 11.7 | 15.8 | 12.6 | 16.8 | 50 | 20.1 | 17 | –
O=C(Cn1c(C(=O)/C=C/c2ccc(Cl)c(Cl)c2)nc2ccccc21)c1ccccc1 | 79 | > 100 | 50.2 | > 100 | 47.1 | > 100 | > 100 | 35.8 | 36.2 | > 100 | 72.2 | 33.3 | > 100 | 67.4 | –
N#Cc1ccccc1NC(=O)C(O)C(O)C(O)C(O)C=O (stereo not given) | > 100 | > 100 | > 100 | > 100 | > 100 | > 100 | > 100 | > 100 | > 100 | > 100 | > 100 | > 100 | > 100 | > 100 | –
CCOC(=O)CCC(NC(=O)OCc1ccccc1)C(=O)NC(CCC(=O)OCC)C(=O)NC(CCC(=O)OCC)C(=O)NC(CCC(=O)OCC)C(=O)NC(CCC(=O)OCC)C(=O)NC(Cc1ccc([N+](=O)[O-])cc1)C(=O)NC(CCC(=O)OCC)C(=O)NC(CCC(=O)OCC)C(=O)NC(CCC(=O)OCC)C(=O)NC(CCC(=O)OCC)C(=O)NC(CCC(=O)OCC)C(=O)OCC (stereo not given) (Cbz-E(OEt)E(OEt)E(OEt)E(OEt)E(OEt)[Phe(4-NO2)]E(OEt)E(OEt)E(OEt)E(OEt)E(OEt)-OEt; configuration not given here) | > 50 | > 50 | > 50 | > 50 | > 50 | > 50 | – | > 50 | > 50 | > 50 | > 50 | > 50 | > 50 | > 50 | –
COC(=O)/C=C1\C(=O)Nc2ccc(Br)cc21 | 3.63 | 3.22 | 3.17 | > 28 | 1.77 | 3.2 | 3.07 | 4.58 | 3.45 | 2.82 | 6.03 | 1.17 | 8.43 | 11.6 | –
CC(C)CC1C(=O)OC(C)(C)OC1=O | > 100 | > 100 | > 100 | > 100 | > 100 | > 100 | > 100 | > 100 | > 100 | > 100 | > 100 | > 100 | > 100 | > 100 | –
ON[C@@H]1C=C[C@H](n2cnc3c(NC4CC4)ncnc32)C1 | > 100 | > 100 | > 100 | > 100 | > 100 | > 100 | > 100 | > 100 | > 100 | > 100 | > 100 | > 100 | > 100 | > 100 | –
